Experimental data reported in patent publication US20100120871A1, “HAIR CARE COMPOSITIONS, METHODS, AND ARTICLES OF COMMERCE THAT CAN INCREASE THE APPEARANCE OF THICKER AND FULLER HAIR” (priority 2008, published 2010).

System: primary human dermal papilla cells
Assay: Survival of metabolically stressed primary human dermal papilla cells (ATP, Cell Titer Glo)
Type: cell-based
Set-up: unit not given here
Conditions: DP cells metabolically stressed 48 hours in reduced media, ATP by Cell Titer Glo, vehicle = 0
Description: Primary human dermal papilla cells were metabolically stressed for 48 hours in reduced standard tissue culture media. During this period of stress the cells were treated with the mixtures below dosed from a DMSO vehicle. After 48 hours the metabolic activity of the cells was measured by the amount of ATP using the Cell Titer Glo™ kit (Promega).
The dermal papilla, in normal human hair, is the control center for hair diameter. Increasing survival of dermal papilla cells in situ leads to increased hair diameter. Accordingly, an increase in survival of dermal papilla cells correlates with an increase in hair diameter.

Row | SMILES | Survival (Table 1A) | Survival (Table 1B) | Survival (Table 2A) | Survival (Table 2B) | Survival (Table 3)
1 | O=C(O)Cc1c[nH]c2ccccc12 [IAA, indole-3-acetic acid] | −0.17 | −0.18 |  |  | 
2 | CC(C)(CO)[C@@H](O)C(=O)NCCCO [Panthenol, panthenol] | −0.17 | −0.17 | −0.01 | −0.13 | 
3 | NC(=O)c1cccnc1 [Niacinamide, niacinamide] | −0.02 | −0.02 | −0.16 | 0.1 | 
4 | OCc1c[nH]c2ccccc12 [Example I3C, Indole-3-Carbinol] |  |  | −0.16 | 0.08 | 
5 | OCCc1c[nH]c2ccccc12 [HI, Tryptophol] |  |  |  |  | 1.72
